In patent US12661355B2, “Compounds and methods for inducing UCP1 expression” (The Regents of the University of California, priority 2020, dated 2026):

Key:
[1] = system: AKAP1mut cells; assay: Gene expression in AKAP1mut and AKAP1wt brown adipocyte cell lines; type: cell-based, mouse; settings: 10 μM
Procedure: RNA levels were measured by qPCR according to known methods. Briefly, RNA was extracted with TRIzol (Invitrogen) and reverse transcribed with iScript (Bio-Rad). Real-time PCR analysis was performed with a CFX Connect (Bio-Rad).
Two gRNAs were selected using sgRNA Designer from the Broad Institute (gRNA1: […] (SEQ ID NO: 46) and gRNA2: […] (SEQ ID NO: 47)). Cloning was performed using pSpCas9 (BB)-2A-puro (PX459) V2.0 vector (Addgene plasmid #62988). Plasmid construction was confirmed by sequencing. A puromycin-sensitive brown adipocyte cell line was transfected with the two plasmids and selected with […] puromycin. Single-cell cloning was performed in a 96-well plate and clones selected by Western blot to detect AKAP1 protein knockdown, and confirmed by sequencing after PCR amplification (PCR primers: […] (SEQ ID NO: 48) and […] (SEQ ID NO: 49)).
To further assess the requirement of AKAP1 to mediate the effects of Z160, AKAP1 was inactivated in an immortalized brown adipocyte cell line (AKAP1wt) using CRISPR/Cas9 gene editing. One clone (AKAP1mut) was selected based on very low AKAP1 protein levels (FIG. 10A).

[2] = system: C57BL/6J male mice; assay: Thermogenesis in vivo after subcutaneous injection; settings: single subcutaneous injection 1.5 mg/kg
Procedure: All mouse studies were conducted in accordance with and approved by the Institutional Animal Research Committee of the University of California, Los Angeles. C57BL/6J male mice were obtained from the Jackson Laboratory. For the drug injection, Z160 (diluted in 100 μl DMSO) was injected subcutaneously, near BAT, at 1.5 mg/kg body weight and compared with vehicle alone. […] Body temperature was obtained with a rectal probe (BAT-12, Physitemp). Aspartate aminotransferase (AST) activity was determined from plasma according to the manufacturer's protocol (MAK055, Sigma).

[3] = system: UCP1; assay: Gene expression in immortalized human white adipocytes; type: cell-based; settings: 10 μM for 4 days
Procedure: Human immortalized brown and white preadipocytes were obtained from Dr. Yu-Hua Tseng (Joslin Diabetes Center, Harvard Medical School, USA). The generation of the two cell lines from human neck adipose tissue biopsies and immortalization was performed as previously described but from a different donor. Cells were cultured in high glucose DMEM supplemented with 10% FBS and antibiotics. Two days after reaching confluence, cells were treated with 30 μM biotin, 500 nM insulin, 17 μM pantothenate, 100 nM dexamethasone, 2 nM 3,3′,5-Triiodo-L-thyronine, 500 μM IBMX, 30 μM indomethacin and 1 μM rosiglitazone, for 12 days. Afterwards, cells were treated with 30 μM biotin, 500 nM insulin, 17 μM pantothenate and 2 nM 3,3′,5-Triiodo-L-thyronine (Maintenance media) for 2 days with end-point assays performed on day 18, and for 5 days with end-point assays performed on day 21, for the brown and white adipocytes cells, respectively.
Mouse RNA levels were measured by qPCR according to known methods. Data were normalized to B2m and Tbp reference genes. Human RNA was extracted using an RNA Mini Plus kit (Zymo) and gene expression determined by Taqman assay. The 1-step qPCR was run on a QuantStudio 12K Flex Real Time PCR System (ThermoFisher) using the following protocol: 50° C. for 5 minutes, 95° C. for 20 seconds, 40 cycles of 95° C. for 15 seconds and 60° C. for 60 seconds. […]

[4] = molecular target: T1, AKAP1 (Rattus norvegicus, UniProt O88884); assay: DARTS in H9c2 cell extracts, AKAP1; type: binding; settings: 20 μM, 1 h
T1 construct: DARTS assay in H9c2 cell extracts treated with vehicle or 20 μM Z160 for 1 h; endogenous in cells; host or cells: rat H9c2 cells
T1 sequence (O88884 30-854): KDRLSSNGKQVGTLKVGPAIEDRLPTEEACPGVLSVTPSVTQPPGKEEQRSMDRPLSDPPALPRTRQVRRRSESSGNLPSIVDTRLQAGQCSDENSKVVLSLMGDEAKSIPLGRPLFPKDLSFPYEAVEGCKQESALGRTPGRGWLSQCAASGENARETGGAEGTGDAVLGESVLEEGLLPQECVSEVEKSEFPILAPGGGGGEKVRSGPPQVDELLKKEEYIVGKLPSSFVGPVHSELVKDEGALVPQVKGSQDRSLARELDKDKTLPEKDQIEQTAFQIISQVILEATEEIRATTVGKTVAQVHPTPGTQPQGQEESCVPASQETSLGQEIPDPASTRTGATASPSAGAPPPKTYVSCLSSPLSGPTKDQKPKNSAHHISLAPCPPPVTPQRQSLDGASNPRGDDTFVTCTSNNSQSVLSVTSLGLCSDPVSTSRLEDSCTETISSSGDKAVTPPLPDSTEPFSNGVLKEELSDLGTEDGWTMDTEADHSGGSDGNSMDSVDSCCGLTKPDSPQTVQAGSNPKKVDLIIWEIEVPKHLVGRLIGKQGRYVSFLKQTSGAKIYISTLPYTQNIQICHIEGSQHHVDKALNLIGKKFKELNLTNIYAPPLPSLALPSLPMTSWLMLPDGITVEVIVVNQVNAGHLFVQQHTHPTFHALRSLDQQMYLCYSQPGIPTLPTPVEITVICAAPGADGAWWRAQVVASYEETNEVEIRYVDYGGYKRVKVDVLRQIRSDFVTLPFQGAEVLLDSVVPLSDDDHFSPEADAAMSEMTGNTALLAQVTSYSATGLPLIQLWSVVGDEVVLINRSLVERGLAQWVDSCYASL
Procedure: Rat H9c2 cells were grown in DMEM supplemented with 10% FBS, 25 mM glucose, 1 mM pyruvate, and 2 mM glutamine Neonatal rat ventricular myocytes (NRVM) were isolated and cultured as previously described. Briefly, 2-4 day old rats were sacrificed and myocytes and fibroblasts were isolated and separated using a Percoll density gradient. Following isolation, NRVMs were plated on gelatin-coated plates in DMEM containing 10% FBS, 25 mM glucose, 1 mM pyruvate, and 2 mM glutamine The next day, FBS was replaced by 1× insulin-transferrin-selenium supplement and the cells were treated with vehicle or 10 μM Z160 for 2 days, with or without 60 μM isoproterenol or 50 μM phenylephrine.
[…] assays were performed according to known methods. Briefly, BAT or cells within a 10 cm dish were lysed with 600 μl M-PER buffer containing protease and phosphatase inhibitors. Debris was pelleted by centrifugation at 18,000 g for 10 min at 4° C., and the lysates were harvested and supplemented with TNC buffer (50 mM Tris-HCl, 50 mM NaCl, 10 mM CaCl2). The lysates were split into two tubes and treated with either vehicle or 20 μM Z160 for 1 h at room temperature. For experiment with BAT, 100 μg of lysate was incubated with different Z160 concentrations. […]

SMILES: COc1ccc(NC(=O)CSc2nc3ccccc3c(=O)[nH]2)c(OC)c1 [Z160]
- induced expression of Hoxa5, Cidea, Elovl3, Acox1 and Cpt1b in AKAP1mut ([1]; AKAP1mut vs AKAP1wt): blunted or reduced
- Ucp1 expression response in AKAP1mut cells ([1]; AKAP1mut): did not respond
- Ppargc1a expression ([1]; both AKAP1wt and AKAP1mut cells): increased
- Ucp1 mRNA and protein levels in BAT [2]: elevated
- expression of genes implicated in mitochondrial function and lipolysis in BAT [2]: enhanced expression
- plasma glucose levels [2]: 157.6 ± 26.2 mg/dL
- body temperature ([2]; measured 24 h later): 38.3 °C
- increase in body temperature ([2]; measured 24 h later, vs vehicle): 0.8 °C
- liver toxicity assessed by circulating aspartate aminotransferase (AST) levels ([2]; plasma): No liver toxicity
- UCP1 expression [3]: 7 fold
- expression of CIDEA, ACADM, CPT1B and ELOVL3 [3]: greatly increased expression
- pronase susceptibility of AKAP1 [4]: not
